# Measured values from ChEMBL document CHEMBL1138639, “Carbonic anhydrase inhibitors: inhibition of human cytosolic isozyme II and mitochondrial isozyme V with a series of benzene sulfonamide derivatives” (Bioorg Med Chem Lett, 2004).
# Assays:
# [1] = target: Carbonic anhydrase 5A, mitochondrial (Homo sapiens, UniProt P35218)
# Carbonic anhydrase 2 = Carbonic anhydrase 2 (Homo sapiens, UniProt P00918)
# Carbonic anhydrase 5A, mitochondrial, sequence (P35218 whole entry): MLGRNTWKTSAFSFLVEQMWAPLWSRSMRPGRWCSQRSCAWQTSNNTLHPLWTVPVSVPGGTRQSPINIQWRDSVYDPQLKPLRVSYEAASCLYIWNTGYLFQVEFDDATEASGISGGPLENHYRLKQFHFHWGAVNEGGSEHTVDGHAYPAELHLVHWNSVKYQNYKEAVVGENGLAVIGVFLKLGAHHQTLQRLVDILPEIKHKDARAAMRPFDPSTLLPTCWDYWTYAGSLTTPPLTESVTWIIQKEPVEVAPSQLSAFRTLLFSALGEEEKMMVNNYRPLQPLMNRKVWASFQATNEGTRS
Structure (SMILES),IC50 [1] [µM],IC50 (Carbonic anhydrase 2) [µM]
N/C(S)=N/Nc1ccc(S(N)(=O)=O)cc1,63.7,0.29
Nc1ccc(S(N)(=O)=O)cc1 [SULFANILAMIDE],32,
NS(=O)(=O)c1nc2ccc([N+](=O)[O-])cc2s1,44.9,0.25
NCc1ccc(S(N)(=O)=O)cc1 [MAFENIDE],27.6,
COC(=O)c1ccccc1S(N)(=O)=O,53.2,
[H]/N=C(/N)NS(=O)(=O)c1ccc(N)cc1 [SULFAGUANIDINE],> 100,> 100
Nc1nccc(Nc2ccc(S(N)(=O)=O)cc2)n1,29.9,
NCCc1ccc(S(N)(=O)=O)cc1,42.4,
NS(=O)(=O)c1ccc(CCO)cc1,17,
NS(=O)(=O)c1ccc([N+](=O)[O-])cc1,4.2,0.4

# Second part, the compound after the results:
IC50 [1] [µM],IC50 (Carbonic anhydrase 2) [µM],Structure (SMILES)
9.3,,NS(=O)(=O)c1ccc(CO)cc1
7.6,,Nc1ccc(S(N)(=O)=O)cc1Br
8.6,3.6,N#CSc1ccc(S(N)(=O)=O)cc1
4.7,,Cc1ccc(S(N)(=O)=O)cc1 [P-TOLUENESULFONAMIDE]
2.65,,NS(=O)(=O)c1ccc(C(=O)O)cc1 [CARZENIDE]
9.6,,NNc1ccccc1S(N)(=O)=O
15.3,,Nc1ccccc1S(N)(=O)=O
7.7,,NNc1ccc(S(N)(=O)=O)cc1
9.3,,Nc1ccc(S(N)(=O)=O)cc1F
7.4,,Nc1ccc(S(N)(=O)=O)cc1Cl
9.4,,Nc1ccc(S(N)(=O)=O)cc1I
0.78,0.41,NS(=O)(=O)c1cccc([N+](=O)[O-])c1
